{
  "source": "patent US5001118A",
  "about": "“Method for preventing senescence and increasing bone mass” (priority 1986, dated 1991)",
  "key": {"ICR type mice": {"system": "ICR type mice", "assay": "Histopathological inspection of internal organs (haematoxylin eosine)", "assay_type": "in vivo, mouse (ICR type)", "details": "male and female ICR mice, 10, 100, and 1,000 μg/kg.day orally", "experimental": "Solutions obtained by dissolving the present substance, 24R,25-(OH)2 -D3 in a prescribed concentration in triglyceride of a fatty acid of 8 to 10 carbon atoms containing 1% of ethanol were administered respectively, orally, forcedly and daily to three male-groups and three female-groups of ICR type mice 5 weeks old at dosages of 10, 100, and 1,000 μg/kg.day. The results are compared below with respect to the following items with those obtained of the male- and female-groups using only the solvent without the present substance.\nThe following internal organs were fixed with 10% formalin, tinted with haematoxylin eosine dye, and subjected to histopathological inspection.\nBrain, heart, lung, liver, kidney, adrenal gland, spleen, pancreas, thyroid gland, pituitary gland, thymus, mesentery lymphoglandia, testis, ovary, uterus, stomach, small intestines (jejunum, ileum, and duodenum), large intestines (colon and caecum), orb, submaxillary gland, urinary bladder, dorsal skin, muscle, sternum, sternal medulla, femur, and femoral medulla."}, "[1]": {"system": "femurs and tibias of male Wister rats", "assay": "Soft X-ray photographs: volumes of cortical bone and sponge bone", "assay_type": "in vivo, rat (Wister)", "details": "400 μg/kg.day orally, 24 months, vs control", "experimental": "Male Wister rats 4 weeks old were preliminarily kept for two weeks. For the subsequent 24 months, the present substance, 24R,25-(OH)2 -D3, was orally administered daily at a dosage of 400 μg/kg.day to the pre-bred rats. Then, the aged rats were sacrificed and their femurs and tibias were collected in the form with adhering flesh, and soft X-ray photographs thereof were taken with a camera (produced by Soflon Corp. and marketed under product code of \"Model NST-1005\"). By the obtained photographs the volumes of the cortical bone and the sponge bone were measured. Further, as to a part of the femurs the central portion in the direction of the major axis of the femurs was inspected with a microdensitometer thereby analyzing the picture of pattern of shade concentration to calculate the index by the conventional M.D. method. As regards the manner of administration, a modified feed was prepared by uniformly dispersing a prescribed amount of the present substance, 24R,25-(OH)2 -D3, in glycine and admixing the resultant dispersing mixture with a marketed feed (produced by Nippon Clea Co., Ltd. under product code of \"CE-2\") in such a ratio as to give a final glycine concentration of 0.5% by weight, and the modified feed was consumed by the rats. To the rats of the control group, the same marketed feed containing 0.5% by weight of glycine was given."}},
  "data": [
    {"smiles": "C=C1CC[C@H](O)C/C1=C/C=C1\\CCC[C@]2(C)[C@@H]([C@H](C)CC[C@@H](O)C(C)(C)O)CC[C@@H]12", "note": "[24R,25-(OH)2 -D3]", "values": [
      {"measurement": "histopathological inspection of internal organs", "setting": "ICR type mice", "value": "no discernible abnormality"},
      {"measurement": "cortical bone width", "setting": "[1]", "value": "increase"},
      {"measurement": "lateral diameter, D", "setting": "[1]", "value": "increase"},
      {"measurement": "trabecula of the sponge bone at epiphysis", "setting": "[1]", "value": "increase"}
    ]}
  ]
}
